# According to patent EP4678639A1, “SALT OF BENZIMIDAZOLE DERIVATIVE” (JW Pharmaceutical Corporation, priority 2023, dated 2024):
# Entries after “also recorded” stand apart in the source; their conditions may differ. Counter-ions that a name gives are not always drawn.
# How the values were obtained:
# [1] = Liquid stability comparative test (20 mg/mL in purified water, 40 °C, 24 hours, HPLC); assay type: physicochemical; settings: for After 24 hours Purity (%) / Initial Purity (%) / After 24 hours Degradant (%) / Initial Degradant (%): 20 mg/mL in purified water; for Initial Purity (%) / Initial Degradant (%): initial time point; for After 24 hours Degradant (%) / Initial Degradant (%): degradant of Formula 4; for Amount of Change Degradant (%): initial vs after 24 hours at 40 °C; for solid precipitation / solution state: stored at 40 °C for 24 hours
# Protocol: The analysis conditions are as follows.
# Each sample was dissolved in purified water to prepare a solution with a concentration of 20 mg/mL, stored at an external temperature of 40 °C, and analyzed by HPLC at the initial time point and after 24 hours to measure purity, and the change in the generated degradant (Formula 4) was measured. The analysis of total related substances and degradants was performed by taking a liquid from a solution prepared at a concentration of 20 mg/mL, diluting it to a concentration of 4 mg/mL with the diluent of the related substance test method (HPLC), and measuring it as a test solution, and analyzing it according to the related substance test method (HPLC).
# [2] = Solid-state accelerated stability test (40 ± 2 °C/RH 75 ± 5 %); settings: for Change (%) Degradant: 1 month vs initial; for Initial (%) Total Related substances / Initial (%) Degradant: Table 7, initial; for Initial (%) Degradant: degradant of Formula 4; for Change in Quality (%) Accelerated (4 weeks) Degradant / Change in Quality (%) Accelerated (4 weeks) Purity: Table 12 summary
# Protocol: (§1) Operation and Calculation: The blank solution, standard solution, and test solution were sequentially tested under the instrument operating conditions according to the liquid chromatography method in the General Test Methods of the 12th Edition of the Korean Pharmacopoeia, and the amount of related substances was calculated using the following equation. Amount of each related; substance (%) = (AT)/(AS) × (CS)/(CT) × (Molecular weight; of the sample)/(Molecular weight; of the standard; product) × P × (1)/(RR; F) [formula] AT = Area of each related substance peak obtained from the test solution AS = Area of the tegoprazan peak obtained from the standard solution CS = Concentration of standard solution (mg/mL) CT = Concentration of test solution (mg/mL) P = Purity/Assay/Potency (%) of standard product RRF = Relative response factor (1.0)
# (§2) A solid-state stability comparative test was conducted on each of the above-mentioned prepared tegoprazan acid addition salts. The stability comparative test was conducted for 1 month under the conditions shown in Table 6 below in accordance with The International Council for Harmonisation of Technical Requirements for Pharmaceuticals for Human Use (ICH) guideline, and the purity of the acid addition salt, total related substances, and the content of degradants were measured by HPLC at the initial time point and after 1 month. Total related substances and degradants were measured according to the related substance test method (HPLC).
# [3] = Stability test by formulation (tablets and orally disintegrating tablets, 60 °C or 90 % RH); assay type: physicochemical; settings: tablets and orally disintegrating tablets prepared with the named salt, versus reference drug; for amount of total related substances generated (FIGS. 18 and 19): 60 °C or 90 % RH, 1 or 3 weeks; for degree of weight gain (FIG. 17): 90 % RH, 3 weeks
# Protocol: The amount of total related substances under stress storage conditions (temperature/humidity) was measured using liquid chromatography (HPLC) using an Infinity 1260 (Agilent) equipment. The analysis conditions are as follows.
# To minimize the influence of additives, each test formulation was selected with the same additives as the reference drug (K-CAB tablets 50 mg, K-CAB orally disintegrating tablets 50 mg) disclosed in the Ministry of Food and Drug Safety Pharmaceutical Integrated Information System, and to minimize differences due to the granule manufacturing process, the formulation was prepared using the simple mixing (direct compression) method. Each formulation was as shown in Tables 16 and 17 below, and the stability conditions were conducted for each formulation under the storage conditions of 60 °C, which is a stress temperature condition, and 90 % RH, which is a stress humidity condition, respectively.
# Stability tests were conducted under stress storage conditions (temperature/humidity) for each formulation. The results of measuring the amount of total related substances after storage under stress conditions for 1 week or 3 weeks are shown in FIG. 18 and FIG. 19.
# [4] = Solid-state stress stability test (humidity 90 % RH); settings: for Remarks: state of the solid; for Initial (%) Degradant / Initial (%) Total Related substances: Table 9, initial; for Change in Quality (%) 90 % RH (4 weeks) Degradant / Change in Quality (%) 90 % RH (4 weeks) Purity: Table 12 summary
# Protocol: as §1, §2
# 3) Stress Stability (humidity 90 % RH)
# [5] = Photostability test, ultraviolet light (200 W·hr/m2) exposure; settings: for After Ultraviolet Light Exposure (200 W hr/m2)(%) Degradant / After Ultraviolet Light Exposure (200 W hr/m2)(%) Total Related substances: Table 10, UV 200 W·hr/m2, PE bag; for Change (%) Degradant: Table 10, after UV exposure vs initial; for Initial (%) Degradant / Initial (%) Total Related substances: Table 10, initial; for Change in Quality (%) Light (Ultraviolet) Degradant / Change in Quality (%) Light (Ultraviolet) Purity: Table 12 summary
# [6] = Raw material stability test versus tegoprazan freebase (60 °C or 90 % RH); assay type: physicochemical; settings: for change in appearance, 60 °C / change in appearance, 90 % RH: 3 weeks; for amount of total related substances generated (FIG. 13): stress temperature/humidity storage, compared to tegoprazan freebase
# [7] = Photostability test, visible light (1.2 Mlux·hr) exposure; settings: for Change (%) Degradant: Table 11, after exposure vs initial; for After (%) Degradant / After (%) Total Related substances: Table 11 under heading Visible Light (1.2 Mlux-hr) Exposure Test; for Change in Quality (%) Light (Visible) Degradant: Table 12 summary
# [8] = Solid-state stress stability test (temperature 60 °C); settings: for After 1 Month (%) Degradant / After 1 Month (%) Total Related substances / change in appearance, change in the color of the solid / Remarks: 1 month; for Change (%) Degradant: 1 month vs initial; for Remarks: appearance; for Initial (%) Degradant / Initial (%) Total Related substances: Table 8, initial
# Protocol: as §1, §2
# 2) Stress Stability Test (temperature 60 °C)
# [9] = liquid stability, 40 °C, 24 hours
# [10] = 40 ± 2 °C / RH 75 ± 5 %, 1 month
smiles,measurement,setting,value
Cc1nc2c(O[C@H]3CCOc4cc(F)cc(F)c43)cc(C(=O)N(C)C)cc2[nH]1 [Methanesulfonate Salt (Crystalline Form)],After 24 hours Purity (%),"[1]; 40 °C, 24 hours",99.47%
same,Initial Purity (%),[1],99.95%
same,After 24 hours Degradant (%),"[1]; 40 °C, 24 hours",0.446%
same,Initial Degradant (%),[1],0.028%
same,Amount of Change Degradant (%),[1],0.42%
same,increase in degradants (degradant of Formula 4),[1]; [9],≤ 0.5%
same,After 1 Month (%) Degradant,[2]; [10],0.518%
same,After 1 Month (%) Total Related substances,[2]; [10],0.727%
same,Change (%) Degradant,[2]; 40 ± 2 °C / RH 75 ± 5 %,0.396%
same,Initial (%) Total Related substances,[2],0.265%
same,Initial (%) Degradant,[2],0.122%
same,Change in Quality (%) Accelerated (4 weeks) Degradant,[2],0.396%
same,Change in Quality (%) Accelerated (4 weeks) Purity,[2],-0.462%
same,increase in total related substances after 1 month,[2]; accelerated stability,≥ 0.3%
same,amount of total related substances generated (FIGS. 18 and 19),[3],significantly increased
same,degree of weight gain (FIG. 17),[3],greater
same,absorb moisture and deliquesce / melted,[4]; 90 % RH,absorb moisture and deliquesce
same,Remarks,"[4]; 90 % RH, 1 month",Melted
same,Initial (%) Degradant,[4],0.122%
same,Initial (%) Total Related substances,[4],0.265%
same,Change in Quality (%) 90 % RH (4 weeks) Degradant,[4],Melted
same,Change in Quality (%) 90 % RH (4 weeks) Purity,[4],Melted
same,After Ultraviolet Light Exposure (200 W hr/m2)(%) Degradant,[5],0.168%
same,After Ultraviolet Light Exposure (200 W hr/m2)(%) Total Related substances,[5],0.339%
same,Change (%) Degradant,[5],0.046%
same,Initial (%) Degradant,[5],0.122%
same,Initial (%) Total Related substances,[5],0.265%
same,Change in Quality (%) Light (Ultraviolet) Degradant,[5],0.046%
same,Change in Quality (%) Light (Ultraviolet) Purity,[5],0.074%
same,"change in appearance, 60 °C",[6],No change in appearance
same,"change in appearance, 90 % RH",[6],Dissolved to transparency
same,"change in appearance, Initial",[6],No change in appearance
same,amount of total related substances generated (FIG. 13),[6],significantly increased
same,Change (%) Degradant,[7],0.086%
same,Initial (%) Degradant,"[7]; Table 11, initial",0.122%
same,Initial (%) Total Related substances,"[7]; Table 11, initial",0.265%
same,After (%) Degradant,[7],0.208%
same,After (%) Total Related substances,[7],0.412%
same,Change in Quality (%) Light (Visible) Degradant,[7],0.086%
same,total related substances increased after 1 month,[8]; 60 °C,≥ 5.0%
same,After 1 Month (%) Degradant,[8]; 60 °C,4.167%
same,After 1 Month (%) Total Related substances,[8]; 60 °C,5.408%
same,"change in appearance, change in the color of the solid",[8]; 60 °C,change in appearance
same,Change (%) Degradant,[8]; 60 °C,4.045%
same,Remarks,[8]; 60 °C,Discolorat ion
same,Initial (%) Degradant,[8],0.122%
same,Initial (%) Total Related substances,[8],0.265%
same,Change in Quality (%) 60 °C (4 weeks) Degradant,[8]; Table 12 summary,4.045%
same,Change in Quality (%) 60 °C (4 weeks) Purity,[8]; Table 12 summary,-5.143%
same,60 °C (4 weeks) appearance remark,"[8]; Table 12 summary, remark in brackets under the 60 °C columns",(Discoloration)
Cc1nc2c(O[C@H]3CCOc4cc(F)cc(F)c43)cc(C(=O)N(C)C)cc2[nH]1 [Pidolate Salt],After 24 hours Purity (%),"[1]; 40 °C, 24 hours",Solid precipitated
same,Initial Purity (%),[1],99.98%
same,After 24 hours Degradant (%),"[1]; 40 °C, 24 hours",Solid precipitated
same,solid precipitation / solution state,[1]; listed as pidolate,a solid precipitated
same,solid precipitation / solution state,[1]; listed as pidolate salt,solid precipitation; also recorded: solids were precipitated
same,After 1 Month (%) Degradant,[2]; [10],0.003%
same,After 1 Month (%) Total Related substances,[2]; [10],0.146%
same,Change (%) Degradant,[2]; 40 ± 2 °C / RH 75 ± 5 %,0.002%
same,Initial (%) Total Related substances,[2],0.145%
same,Initial (%) Degradant,[2],0.001%
same,Change in Quality (%) Accelerated (4 weeks) Degradant,[2],0.002%
same,Change in Quality (%) Accelerated (4 weeks) Purity,[2],-0.001%
same,purity change after 1 month,[2]; accelerated stability,≤ 0.1%
same,Remarks,"[4]; 90 % RH, 1 month",Melted
same,absorb moisture and deliquesce / melted,"[4]; 90 % RH, listed as pidolate",deliquesced
same,absorb moisture and deliquesce / melted,"[4]; 90 % RH, listed as pidolate salt",absorb moisture and deliquesce; also recorded: melted
same,Initial (%) Degradant,[4],0.001%
same,Initial (%) Total Related substances,[4],0.145%
same,Change in Quality (%) 90 % RH (4 weeks) Degradant,[4],Melted
same,Change in Quality (%) 90 % RH (4 weeks) Purity,[4],Melted
same,After Ultraviolet Light Exposure (200 W hr/m2)(%) Degradant,[5],0.020%
same,After Ultraviolet Light Exposure (200 W hr/m2)(%) Total Related substances,[5],0.266%
same,Change (%) Degradant,[5],0.019%
same,Initial (%) Degradant,[5],0.001%
same,Initial (%) Total Related substances,[5],0.145%
same,Change in Quality (%) Light (Ultraviolet) Degradant,[5],0.019%
same,Change in Quality (%) Light (Ultraviolet) Purity,[5],0.121%
same,Change (%) Degradant,[7],0.067%
same,Initial (%) Degradant,"[7]; Table 11, initial",0.001%
same,Initial (%) Total Related substances,"[7]; Table 11, initial",0.145%
same,After (%) Degradant,[7],0.068%
same,After (%) Total Related substances,[7],0.463%
same,Change in Quality (%) Light (Visible) Degradant,[7],0.067%
same,After 1 Month (%) Degradant,[8]; 60 °C,0.088%
same,After 1 Month (%) Total Related substances,[8]; 60 °C,0.353%
same,Change (%) Degradant,[8]; 60 °C,0.087%
same,Initial (%) Degradant,[8],0.001%
same,Initial (%) Total Related substances,[8],0.145%
same,Change in Quality (%) 60 °C (4 weeks) Degradant,[8]; Table 12 summary,0.087%
same,Change in Quality (%) 60 °C (4 weeks) Purity,[8]; Table 12 summary,-0.208%
Cc1nc2c(O[C@H]3CCOc4cc(F)cc(F)c43)cc(C(=O)N(C)C)cc2[nH]1 [Sulfate Salt],After 24 hours Purity (%),"[1]; 40 °C, 24 hours",93.95%
same,Initial Purity (%),[1],99.89%
same,After 24 hours Degradant (%),"[1]; 40 °C, 24 hours",5.414%
same,Initial Degradant (%),[1],0.080%
same,Amount of Change Degradant (%),[1],5.33%
same,degradants formed after 24 hours of storage,[1]; [9],≥ 5%
same,purity decreased,[1]; [9],about 6%
same,After 1 Month (%) Degradant,[2]; [10],0.712%
same,After 1 Month (%) Total Related substances,[2]; [10],1.197%
same,Change (%) Degradant,[2]; 40 ± 2 °C / RH 75 ± 5 %,0.373%
same,Remarks,"[2]; 40 ± 2 °C / RH 75 ± 5 %, 1 month, appearance",Discolorat ion
same,Initial (%) Total Related substances,[2],0.609%
same,Initial (%) Degradant,[2],0.339%
same,increase in total related substances after 1 month,[2]; accelerated stability,≥ 0.3%
same,change in appearance of the solid,"[2]; accelerated stability, 1 month",discoloration
same,amount of total related substances generated (FIGS. 18 and 19),[3],significantly increased
same,degree of weight gain (FIG. 17),[3],greater
same,After 1 Month (%) Degradant,"[4]; 90 % RH, 1 month",14.500%
same,After 1 Month (%) Total Related substances,"[4]; 90 % RH, 1 month",16.637%
same,Change (%) Degradant,"[4]; 90 % RH, 1 month vs initial",14.161%
same,Remarks,"[4]; 90 % RH, 1 month",Polymorp hic Transition
same,polymorphic transition (PXRD),"[4]; 90 % RH, after 1 month",polymorphic transition occurred
same,Initial (%) Degradant,[4],0.339%
same,Initial (%) Total Related substances,[4],0.609%
same,After Ultraviolet Light Exposure (200 W hr/m2)(%) Degradant,[5],1.415%
same,After Ultraviolet Light Exposure (200 W hr/m2)(%) Total Related substances,[5],1.748%
same,Change (%) Degradant,[5],1.076%
same,Initial (%) Degradant,[5],0.339%
same,Initial (%) Total Related substances,[5],0.609%
same,"change in appearance, 60 °C",[6],Pungent odor
same,"change in appearance, 90 % RH",[6],Pungent odor
same,"change in appearance, Initial",[6],Pungent odor
same,amount of total related substances generated (FIG. 13),[6],significantly increased
same,Change (%) Degradant,[7],1.934%
same,Initial (%) Degradant,"[7]; Table 11, initial",0.339%
same,Initial (%) Purity,"[7]; Table 11, initial",99.3%
same,Initial (%) Total Related substances,"[7]; Table 11, initial",0.609%
same,After (%) Degradant,[7],2.273%
same,After (%) Total Related substances,[7],2.754%
same,After 1 Month (%) Degradant,[8]; 60 °C,2.345%
same,After 1 Month (%) Total Related substances,[8]; 60 °C,3.441%
same,"change in appearance, change in the color of the solid",[8]; 60 °C,change in appearance
same,Change (%) Degradant,[8]; 60 °C,2.006%
same,Remarks,[8]; 60 °C,Discolorat ion
same,Initial (%) Degradant,[8],0.339%
same,Initial (%) Total Related substances,[8],0.609%
